In ChEMBL document CHEMBL1121749, “Beta-adrenergic blocking agents. 21. threo-1-(Aryloxy)-3-(alkylamino)butan-2-ols” (J Med Chem, 1981):
Calls of active or inactive are those of the source. No cut-off for these calls is given here.

Molecular target: Adrenergic receptor beta (Homo sapiens) (UniProt P08588+P07550+P13945)
Assay: Beta adrenoceptor blocking potency by inhibition of 50% of the tachycardia produced by a submaximal dose of the isoproterenol (0.2ug/kg, intravenously).
Assay type: functional
Settings: Felis catus

DOSE, inactive:
CC(C)NC(C)C(O)COc1ccc(OCc2ccccc2)cc1 (centres undefined)
CC(NC(C)(C)C)C(O)COc1cccc2sccc12 (centres undefined)
CCC(=O)Nc1cccc2c(OCC(O)C(C)NC(C)C)cccc12 (centres undefined)
CC(=O)Nc1ccc(OCC(O)C(C)N)cc1 (centres undefined)
CC(C)NC(C)C(O)COc1ccc(Cl)c(Cl)c1 (centres undefined)
Cc1ccc(OCC(O)C(C)NC(C)C)cc1 (centres undefined)
COc1ccc(CCNC(C)C(O)COc2cccc3ccccc23)cc1OC (centres undefined)
CC(=O)Nc1ccc(OCC(O)C(C)NC(C)C)cc1 (centres undefined)
CCNC(C)C(O)COc1ccc(CC(N)=O)cc1 (centres undefined)
Cc1csc2cccc(OCC(O)C(C)NC(C)(C)C)c12 (centres undefined)
CCC(=O)Nc1ccc(OCC(O)C(C)NC(C)(C)C)c([N+](=O)[O-])c1 (centres undefined)
CC(NC(C)(C)C)C(O)COc1ccc(CC(N)=O)cc1F (centres undefined)
CC(NC(C)(C)C)C(O)COc1ccc(CC(N)=O)cc1 (centres undefined)
CC(C)CNC(=O)c1ccc(OCC(O)C(C)NC(C)C)c(Cl)c1 (centres undefined)
CC(C)NC(C)C(O)COc1ccc(CC(N)=O)cc1 (centres undefined)
CC(C)NC(C)C(O)COc1ccccc1-c1nc2ccccc2s1 (centres undefined)
C=CCc1cc(CC(N)=O)ccc1OCC(O)C(C)NC(C)(C)C (centres undefined)
CCC(=O)Nc1ccc(OCC(O)C(C)NC(C)(C)C)cc1 (centres undefined)
CC(NC(C)(C)C)C(O)COc1cccc2ccccc12 (centres undefined)
CC(=O)Nc1ccc(OCC(O)C(C)NC(C)(C)C)cc1 (centres undefined)
CCC(=O)Nc1cccc2c(OCC(O)C(C)NC(C)(C)C)cccc12 (centres undefined)
CCNC(C)C(O)COc1ccc(NC(C)=O)cc1 (centres undefined)
CC(C)NC(C)C(O)COc1ccc2ccccc2c1 (centres undefined)
CC(C)CNC(C)C(O)COc1cccc2ccccc12 (centres undefined)
CC(=O)Nc1ccc(OCC(O)C(C)NC(C)(C)CO)cc1 (centres undefined)
CC(NC(C)(C)C)C(O)COc1ccccc1/C=C/C#N (centres undefined)
CCOc1cc(CNC(=O)CC)ccc1OCC(O)C(C)NC(C)C (centres undefined)
COc1ccc(CCNC(C)C(O)COc2ccc(CC(N)=O)cc2)cc1OC (centres undefined)
CC(NC(C)(C)C)C(O)COc1ccccc1C#N (centres undefined)
